What is called IC50 is the concentration at which inhibition is half-maximal. The term inhibition denotes the change of the read-out against control, counted positive when it falls.

Test [1] deals with Caspase-3 gene expression of HepG2 cells. Description: RT-qPCR gene expression, Caspase-3. In kind it is cell-based, Human. The settings on record: 48 hours, control 1.022±0.258. The procedure:
HepG2 cells were inoculated in 6-well culture plates at a density of 3×10^5 cells/well, and allowed to attach at 37°C for 24 hours. Then cells were treated with specific concentrations of EM-d-Rha and incubated in a humidified incubator supplied with 5% CO2 at 37°C for 48 hours. Medium were changed once every 24 hours. Afterwards, mRNA was extracted from every group using E.Z.N.A.^TM Total RNA Kit II according to the manufacturer’s instructions. The extracted mRNA was dissolved in 20 μL ddH2O (Qiagen) containing diethyl pyrocarbonate (DEPC). The concentration of mRNA was quantified with a NanoDrop ND-100 device (Thermo Fisher Scientific). cDNA was synthesized using 3μg of the extracted mRNA from each sample with PCR system (BIO-RAD,USA). The cDNA synthesis reaction was prepared according to the manufacturer’s instructions by mixing 3μg mRNA, 4.0μL 5× MMLV buffer, 3 μL oligodT18, 0.5μL 10 mM dNTP solution, 0.8μL RNase inhibitor, 3.7μL MMLV Rtase, and 6.0μL DEPC ddH2O in PCR tubes. The reaction condition was 5min at 70°C, 60 min at 42°C and 10min at 4°C. The products were used for subsequent RT-qPCR analysis. The level of mRNA expression was measured by RT-qPCR using a CFX96^TM C1000 Real-Time PCR System (BIO-RAD, USA).The primers were designed using idt.dna software system (http //www.idtdna.com). The specific primers were: Cyto C: 5′-[…]-3′ (forward), 5′- […] -3′ (reverse); Caspase 3: 5′- CCTACAGCCCATTTC TCCATAC-3′ (forward), 5′-[…]-′ (reverse); β-actin: 5′-[…]-3′ (forward), 5′-[…]-3′ (reverse). The product sizes of Cyto C, Caspase 3 and β-actin were 91bp, 125bp and 107bp, respectively. […]
Master Mix (Promega), 0.3μL of each primer (10μM), and 1.0 μL cDNA template. […] Each sample was analyzed in quadruplicate and mean was used for further analysis. The mRNA expression levels of each sample were quantified by measuring the threshold cycle (CT) values of genes. The relative values of the target gene expression were calculated according to CT values of the target genes and the reference gene (β-actin) by applying Livak and Schmittgen method. […]
A general note: Real-time PCR tracks product formation cycle by cycle.

The next test has as its system MDCK cells. As to the kind of experiment: MTT cell viability assay, MDCK. The settings on record: Canis lupus familiaris, 72 hours. In kind it is cell-based, Canine. The procedure:
(§1) The viability of cancer cells was evaluated by MTT assay. Briefly, cells were inoculated in 96-well culture plates at the density of 1×10^4/well with complete medium containing 10% fetal calf serum in a final volume of 0.2 mL. Cells were incubated at 37°C for at least 24 hours to allow optimal attachment. When the cells reached 60% confluence, they were treated with Cisplatin, HCPT and emodin rhamnopyranosides derivatives in various concentrations, and incubated in a humidity-controlled 5%CO2 incubator at 37°C for 72 hours. Medium were exchanged once every 24 hours. Cell control group and blank group were set up in the same manner, with each group having six parallel wells. Cell survival was assessed by directly adding 22 μL of 5mg/mL MTT to 0.2 mL medium. After three hours, the formazan precipitate was dissolved in 200μL isopropanol per well, and completely mixed under room temperature. Afterwards, the optical density of each well was detected at 570 nm wavelength by iMark microplate reader (Bio-rad,USA). This experiment was repeated at least three times.
(Formazan colour is commonly taken as a measure of viable cells.)

Test [2] relates to HepG2 cells. Description: Morphological analysis (bright-field microscopy). The settings on record: HepG2, 0.1-62.5μM, 48 h, dose dependent. Type of test: cell-based, Human. The procedure:
For morphological observation, HepG2 cells in logarithmic growth phase were seeded in a 96-well plate at the density of 1×10^4/well with 0.2 mL complete medium containing 10% fetal calf serum. Cells were allowed to attach at 37°C for 24 hours. Then cells were treated with EM-d-Rha and HCPT at a specific concentration. Each group has six parallel wells. […] Medium were exchanged once every 24 hours.

Test [3] relates to HepG2 cells. Description: MTT cell viability assay, HepG2. Type of test: cell-based, Human. The settings on record: for IC50: HepG2. The method, then:
as §1

Another test concerns L02 normal liver cells. Description: MTT cell viability assay, L02. In kind it is cell-based. The settings on record: Homo sapiens; MTT at 72h, n=3, mean±S.E.M; read-out: IC50 for EM-d-Rha, L02. The method, then:
as §1

Test [4] concerns HepG2 cells. Description: Fluorescence microscopy assay (Hoechst 33342). Type of test: cell-based, Human. The settings on record: HepG2, varying concentrations (0.1μM; 0.5μM; 2.5μM), 48h, dosage-dependent. The procedure: HepG2 cells were inoculated in duplicate at 3×10^5/well density in 6-well plate, and allowed to attach at 37°C for 24 hours. Afterwards, cells were treated with 10 μM HCPT, 25 μM emodin and specific concentration EM-d-Rha (0.1μM, 0.5μM, 2.5μM), respectively. Cell control group was set in the same way. […] Medium were exchanged as described previously. In the end, all medium were discarded and cells were digested with 2mL 0.25% Trypsin-EDTA solution at 37°C for 5 min. After cells were harvested, cells were washed with PBS twice followed by centrifuging at 300×g for 5 minutes. Finally, cells were re-suspended in 100μL cold PBS after the supernatant was discarded. Cells were cultured in the dark for 10 minutes at room temperature after adding 100μL 1mg/mL Hoechst 33342 staining solution. Cells were harvested again as described previously to discard the staining solution. Wash the harvested cells twice with PBS before applying to the clean glass slides. The morphological changes of cells nuclei were observed and photographed under the fluorescence microscope (Olympus, Japan) at 350 nm excitation wavelength. The experiment was repeated three times.

Converted amounts (≈) assume the structure as drawn. “Also recorded” adds a separate entry of the source. Read-outs that look alike come from different tables or passages of the source.

For `CC(=O)O[C@@H]1[C@@H](O[C@@H]2O[C@@H](C)[C@H](O)[C@@H](OC(C)=O)[C@H]2OC(C)=O)[C@H](C)O[C@@H](Oc2cc(O)c3c(c2)C(=O)c2cc(C)cc(O)c2C3=O)[C@@H]1OC(C)=O` [S-8, 3-(2”,3”-Di-O-acetyl-α-L-rhamnopyranosyl-(1→4)-2’,3’-di-O-acetyl-α-L-rhamnopyranosyl)-emodin], the “Caspase-3 mRNA expression level relative to controls” value was found to be 0.949±0.259 fold in test [1] (HepG2, 0.70μM); 0.900±0.190 fold in test [1] (HepG2, 1.40μM); 4.413±3.730 fold in test [1] (HepG2, 5.60μM). Further, the IC50 in the test with MDCK cells amounted to 18.5 µg/mL (≈ 25.3 µM); in the test on HepG2 cells [3] (Homo sapiens, MTT at 72h, n=3, mean±S.E.M, read-out: IC50 for EM-d-Rha, HepG2) it was 1.81 ± 0.44 µM; in the test with HepG2 cells [3] (Homo sapiens, MTT, 72 hours, read-out: IC50 values, HepG2), 0.65 µg/mL; in the test on L02 normal liver cells, 19.7 ± 1.7 µM. Also, the “Cell morphology (bright-field)” value in the test on HepG2 cells [2] is “morphological changes of apoptosis such as reduction in cell volume and losing cell-cell contacts”. Besides, in the test on HepG2 cells [3] (HepG2 treated for three day, Fig 3, listed as EM-d-Rha), the “Activity against HepG2 cells relative to comparators (dose-response curves)” value was “stronger in comparison to that of emodin; also recorded: inferior as compared to that of Cisplatin and HCPT”. Further, in the test with HepG2 cells [3] (Homo sapiens, HepG2, 0.1μM, MTT 72h, read-out: The inhibition rate of EM-d-Rha), the inhibition at 0.1 µM turned out to be 4.6 ± 5.04%. The inhibition at 0.5 µM in the test on HepG2 cells [3] (Homo sapiens, HepG2, 0.5μM, MTT 72h, read-out: The inhibition rate of EM-d-Rha) worked out at 24.3 ± 6.54%. In addition, the inhibition at 2.5 µM with HepG2 cells [3] (Homo sapiens, HepG2, 2.5μM, MTT 72h, read-out: The inhibition rate of EM-d-Rha) was 70.7 ± 3.54%. In the test with HepG2 cells [3] (Homo sapiens, HepG2, 12.5μM, MTT 72h, read-out: The inhibition rate of EM-d-Rha), the inhibition at 12.5 µM was determined as 90.97 ± 0.72%. In addition, in the test with HepG2 cells [3] (Homo sapiens, HepG2, 62.5μM, MTT 72h, read-out: The inhibition rate of EM-d-Rha), the inhibition at 62.5 µM turned out to be 91.46 ± 0.46%. For the same compound, in the test on HepG2 cells [3] (from Table 1), the “Decrease of IC50 compared to the IC50 of emodin, HepG2” value is listed as 19.68 fold. Besides, the “Nuclear morphology, Hoechst 33342” value with HepG2 cells [4] is “nuclear shrinkage and DNA condensation”.

The record behind these values is publication PMC4684281, “Antitumor Effects and Mechanism of Novel Emodin Rhamnoside Derivatives against Human Cancer Cells In Vitro” (PLoS ONE, 2015).
